Consider 20 compounds from article PMC8226262, “Licarin-B Exhibits Activity Against the Toxoplasma gondii RH Strain by Damaging Mitochondria and Activating Autophagy” (Frontiers in Cell and Developmental Biology, 2021).

Read-outs that look alike come from different tables or passages of the source.

One series concerns HFF cells. Briefly: Cytotoxicity assay (CCK-8). In kind it is cell-based, Human. On the procedure:
In brief, HFFs (1 × 10^4 cells/well) were seeded in 96-well plates in a monolayer and incubated with different concentrations of the compounds in DMEM with 1% FBS; DMEM without compound was used as a control. After 24 h, CCK-8 solution (Biomake, United States) was added, and absorbance was measured at 450 nm using a Multiskan GO instrument (Thermo Fisher Scientific, MA, United States). The cell viability values are expressed as percentages of the control value (considered as 100% survival). […] Triplicate independent experiments were performed.

The subject of series [1] is T. gondii tachyzoites (strain RH) in HFFs. Briefly: In vitro screening of anti-T. gondii activity (Giemsa staining, qPCR). The settings on record: 24 h; for inhibition at 20 µg/mL: 20 μg/mL. In kind it is cell-based, Toxoplasma gondii. How it is done:
Human foreskin fibroblasts were seeded in 6-well plates and infected with 3 × 10^4 fresh T. gondii tachyzoites. After 8 h, the natural compounds in DMEM supplemented with 1% FBS were added. Sulfadiazine and pyrimethamine were included as positive drug controls. After incubation for 24 h, the cells were washed twice with PBS, stained with Giemsa, and observed by light microscopy. In addition, total DNA was isolated from the cells using DNAiso Reagent (Takara), and a 529-bp repeat element was amplified by quantitative polymerase chain reaction (qPCR) with the following primers: Tox-F (5′-AGGAGAGATATCAGGACTGTAG-3′), Tox-R (5′-GCGTCGTCTCGTCTAGATCG-3′), and the Taqman probe Tox-TP (6-Fam CCGGCTTGGCTGCTTTTCCT BHQ1), as described in a previous study ([Zhang J.L. et al., 2019]). The inhibition rates against T. gondii proliferation for the natural compounds at concentrations with no HFF toxicity were calculated, and the inhibition rate in each treatment group was presented as the % of the control group. The experiment was repeated three times.
(In qPCR the cycle at which signal appears reflects the starting amount.)

Series [2] relates to T. gondii tachyzoite intracellular proliferation in HFFs. Briefly: Anti-proliferation activity of licarin-B (qPCR). In kind it is cell-based, Toxoplasma gondii. The settings on record: Toxoplasma gondii, 0.4 μg/mL, 24 h. How it is done:
DMEM without drugs was used as a parasite control. […] After 24 h, the cells were washed twice with PBS, and total genomic DNA from the cells was obtained as described in a previous study ([Zhang J.L. et al., 2019]). […] The results represent the means ± standard deviations (SD) from at least three independent experiments. The EC50 of licarin-B for tachyzoite growth inhibition was plotted as a function of the compound concentration via non-linear curve analysis using SPSS 19.0 software (SPSS Inc., Chicago, IL, United States). The results of the anti-invasion and anti-proliferation tests, the in vivo assays of the survival rate and parasite burden and data comparisons between the parasite control and treatment groups were statistically analyzed by one-way analysis of variance (ANOVA) using SPSS software.

The test system of series [3] is T. gondii invasion of HFFs. Briefly: Anti-invasion assessment in vitro (qPCR). In kind it is cell-based, Toxoplasma gondii. Particulars: Toxoplasma gondii, 0.4 μg/mL, 2 h of infection, read-out: Anti-invasion inhibition rate. On the procedure: Human foreskin fibroblasts were seeded in 6-well plates and incubated with different concentrations of licarin-B (4.5, 9, 13.5, 18, or 22.5 μg/mL), sulfadiazine (0.4 μg/mL, as a positive control) or without drugs in DMEM supplemented with 1% FBS and then infected with 3 × 10^6 fresh parasites per well. The anti-invasion capability of licarin-B was determined by qPCR after 2 h of infection, as described in a previous study ([Zhang J.L. et al., 2019]). Triplicate independent experiments were performed.

The mark [4] stands for this setting: Toxoplasma gondii, read-out: Mean inhibition rate (% of control).
Setting [5] is: 80 μg/mL, T. gondii proliferation in HFFs.
The mark [6] stands for this setting: Toxoplasma gondii, 4 μg/mL, T. gondii proliferation in HFFs, read-out: Mean inhibition rate (% of control).
The mark [7] stands for this setting: Toxoplasma gondii, T. gondii proliferation in HFFs, read-out: Mean inhibition rate (% of control).

On to `C=CCc1cc(OC)c2c(c1)OCO2` [Myristicin, myristicin], for which the “Natural compound concentration range with no toxicity to HFF cells” value in the series on HFF cells (CCK-8, 24 h, DMEM with 1% FBS) lay within 0.01 to 40 µg/mL. Also, the inhibition at 40 µg/mL in series [1] (setting [4]) was 22.3 ± 3.46%. With `COc1c(/C=C/C(=O)c2ccc(O)cc2)ccc(O)c1O` [Licochalcone B], the “Mean inhibition rate (% of control)” value in series [1] (16 μg/mL, T. gondii proliferation in HFFs) stood at 51.67 ± 6.71%. On to `C/C=C/c1cc(OC)c2c(c1)C(C)C(c1ccc(O)c(OC)c1)O2` (stereo not drawn) [Dehydrodiisoeugenol, dehydrodiisoeugenol], for which, in series [1] (setting [5]), the “Mean inhibition rate (% of control)” value is given as 8.14 ± 2.15%.

Regarding `COc1cc(O)ccc1/C=C/C(=O)c1ccc(O)cc1` [Echinatin, echinatin], the “Natural compound concentration range with no toxicity to HFF cells” value with HFF cells (CCK-8, 24 h, DMEM with 1% FBS) is 0.01 to 4 µg/mL. Moreover, the inhibition at 4 µg/mL in series [1] (setting [6]) was found to be 63.1 ± 10.7%. For `O=c1c(-c2ccc(O)cc2)coc2cc(O[C@@H]3O[C@H](CO)[C@@H](O)[C@H](O)[C@H]3O)cc(O)c12` [Genistin, genistin], the “Natural compound concentration range with no toxicity to HFF cells” value in the series with HFF cells (CCK-8, 24 h, DMEM with 1% FBS) was 0.01 to 32 µg/mL. For the same compound, in series [1] (Toxoplasma gondii, 32 μg/mL, T. gondii proliferation in HFFs, read-out: Mean inhibition rate (% of control)), the inhibition at 32 µg/mL was determined as 26.3 ± 3.54%. For `CCCCCCCCCCCCCC(=O)O` [Myristic acid, myristic acid], the “Natural compound concentration range with no toxicity to HFF cells” value with HFF cells (CCK-8, 24 h, DMEM with 1% FBS) is 0.01 to 20 µg/mL. For the same compound, the inhibition at 20 µg/mL in series [1] (setting [7]) was 26.3 ± 1.32%. On to licorice glycosides, for which the “Mean inhibition rate (% of control)” value in series [1] (setting [5]) was 35.93 ± 4.78%. For `CC1=CC(=O)C(C(C)C)CC1` (stereo not drawn) [Piperitone, piperitone], in the series with HFF cells (human, 24 h), the “Natural compound concentration range with no toxicity to HFF cells” value lay in the range of 0.01 to 20 µg/mL. The inhibition at 20 µg/mL in series [1] (setting [7]) was 31.1 ± 1.97%. On to `CCCCCCCCCCCCCC(=O)OC` [Methyl myristate, methyl myristate], for which the “Natural compound concentration range with no toxicity to HFF cells” value in the series on HFF cells (human, 24 h) was in the range of 0.01 to 160 µg/mL. Further, in series [1] (Toxoplasma gondii, 160 μg/mL, T. gondii proliferation in HFFs, read-out: Mean inhibition rate (% of control)), the inhibition at 160 µg/mL turned out to be 7.65 ± 2.64%. Consider `CC1(C)O[C@H]2CC(=O)OC[C@]23[C@H]2CC[C@@]4(C)[C@H](c5ccoc5)OC(=O)[C@H]5O[C@]54[C@]2(C)C(=O)C[C@@H]13` [Limonin, limonin], for which the “Natural compound concentration range with no toxicity to HFF cells” value with HFF cells (human, 24 h) lay in the range of 0.01 to 80 µg/mL. Further, the inhibition at 80 µg/mL in series [1] (Toxoplasma gondii, 80 μg/mL, T. gondii proliferation in HFFs, read-out: Mean inhibition rate (% of control)) amounted to 72.2 ± 9.78%. As for `O=C(O)[C@H](O)c1ccccc1` [D-mandelic acid], the “Natural compound concentration range with no toxicity to HFF cells” value with HFF cells (CCK-8, 24 h, DMEM with 1% FBS) fell in the range of 0.01 to 80 µg/mL. For the same compound, the “Mean inhibition rate (% of control)” value in series [1] (setting [5]) amounted to 9.30 ± 3.76%. Consider `O=C(/C=C/c1ccc(O)c(O)c1)O[C@@H]1C[C@](O)(C(=O)O)C[C@@H](O)[C@H]1O` [Chlorogenic acid, chlorogenic acid], for which, in the series with HFF cells (human, 24 h), the “Natural compound concentration range with no toxicity to HFF cells” value lay within 0.01 to 400 µg/mL. In addition, the inhibition at 400 µg/mL in series [1] (Toxoplasma gondii, 400 μg/mL, T. gondii proliferation in HFFs, read-out: Mean inhibition rate (% of control)) was 34.6 ± 2.77%. As to `COc1c(/C=C/C(=O)c2ccc(O)cc2)ccc(O)c1CC=C(C)C` [Licochalcone C, licochalcone C], the “Mean inhibition rate (% of control)” value in series [1] (4 μg/mL, T. gondii proliferation in HFFs) is listed as 54.91 ± 4.85%.

Consider `O=C(O)[C@@H](O)c1ccccc1` [L-mandelic acid], for which, in the series with HFF cells (CCK-8, 24 h, DMEM with 1% FBS), the “Natural compound concentration range with no toxicity to HFF cells” value fell in the range of 0.01 to 80 µg/mL. The “Mean inhibition rate (% of control)” value in series [1] (setting [5]) came to 11.87 ± 2.84%.

As to `CC1(C)CC[C@]2(C(=O)O)CC[C@]3(C)C(=CC[C@@H]4[C@@]5(C)C[C@@H](O)[C@H](O)C(C)(C)[C@@H]5CC[C@]43C)[C@@H]2C1` [Maslinic acid, maslinic acid], the “Natural compound concentration range with no toxicity to HFF cells” value in the series on HFF cells (CCK-8, 24 h, DMEM with 1% FBS) lay in the range of 0.01 to 4 µg/mL. Further, the inhibition at 4 µg/mL in series [1] (setting [4]) turned out to be 65.4 ± 4.53%. As to `O=C(/C=C/c1ccc(O)cc1)c1ccc(O)cc1O` [Isoliquiritigenin, isoliquiritigenin], the “Natural compound concentration range with no toxicity to HFF cells” value in the series with HFF cells (human, 24 h) is 0.01 to 4 µg/mL. For the same compound, the inhibition at 4 µg/mL in series [1] (setting [6]) worked out at 42.8 ± 7.92%.

Take `O=c1c(-c2ccc(O)cc2)coc2cc(O)cc(O)c12` [Genistein, genistein]: the “Natural compound concentration range with no toxicity to HFF cells” value with HFF cells (CCK-8, 24 h, DMEM with 1% FBS) is 0.01 to 40 µg/mL. Further, in series [1] (setting [4]), the inhibition at 40 µg/mL came out at 22.3 ± 5.91%. `Cc1ccc(C(C)C)c(O)c1` [Thymol, thymol]: the “Natural compound concentration range with no toxicity to HFF cells” value in the series on HFF cells (human, 24 h) was in the range of 0.01 to 16 µg/mL. Moreover, the inhibition at 16 µg/mL in series [1] (Toxoplasma gondii, 16 μg/mL, T. gondii proliferation in HFFs, read-out: Mean inhibition rate (% of control)) worked out at 25.7 ± 2.31%. For the compound `Nc1ccc(S(=O)(=O)Nc2ncccn2)cc1` [Sulfadiazine, reference compound], the inhibition at 0.4 µg/mL in series [2] is 40.8%; in series [3] it was 56.5%. Turning to `COc1cc2c(=O)c(-c3ccc(O)cc3)coc2cc1O` [Glycitein, glycitein], the “Natural compound concentration range with no toxicity to HFF cells” value in the series on HFF cells (CCK-8, 24 h, DMEM with 1% FBS) was in the range of 0.01 to 40 µg/mL. Besides, the inhibition at 40 µg/mL in series [1] (Toxoplasma gondii, 40 μg/mL, T. gondii proliferation in HFFs, read-out: Mean inhibition rate (% of control)) is 8.11 ± 2.19%.

One may read the inhibition as the share of the control response that was lost under treatment.
